Reference: patent US20240025910A1, “BRAIN-MIGRATING TUMOR THERAPEUTIC AGENT CONTAINING FUSED PYRIMIDINE COMPOUND AS ACTIVE INGREDIENT” (TAIHO PHARMACEUTICAL CO., LTD., priority 2020, published 2024)

Key:
[1] = Evaluation of brain penetration property (Kp, Kp,uu) after single oral dose; assay type: in vivo; details: BALB/cAJcl-nu/nu; for Kp at 1 h: mouse, ratio of compound concentrations in brain/plasma, mice, 1 hour after administration, Kp of 0.1 or more judged brain penetrable; for Kp uu at 1 h: ratio of unbound compound concentrations in brain/plasma, using mouse plasma and brain protein unbound ratios of Test Example 1, mice, 0.3 or more judged excellent
Experimental: Compounds shown in Tables 1 to 4 were added to mouse plasma at a final concentration of 1 μmol/L. The resultant compound-added mouse plasma was added to the donor side of an equilibrium dialysis device (HTDialysis) in which an equilibrium dialysis membrane was set. An equal amount of PBS was added to the receiver side of the device, and after incubation in a 10% CO2 incubator for 6 hours, the compounds on the donor side and the receiver side were detected with the LC-MS/MS. The unbound ratio of each compound to plasma protein was calculated from the ratio of the compound peak area of the receiver side to that of the donor side.
The unbound ratio of each compound to brain protein was calculated in the same manner as above except that: the compound was added to a mouse brain homogenate instead of the mouse plasma; and a dilution ratio was taken into consideration in the calculation of the unbound ratio. In this case, the mouse brain homogenate was obtained by adding a 3-fold amount of PBS to the mouse brain, and then homogenizing the mixture through use of an ultrasonic homogenizer.
The compounds shown in Tables 1 to 4 were dissolved or suspended in 0.5% HPMC, 0.1N hydrochloric acid, and orally administered in a single dose to BALB/cAJcl-nu/nu mice (CLEA Japan, Inc.) untreated, or subcutaneously implanted with TT cells, or subcutaneously implanted with the BaF3/KIF5B-RET_RFP cell line. […] Thus, blood and brain samples were obtained. The obtained blood sample was centrifuged to obtain a plasma sample. A 3-fold amount of water was added to the obtained brain sample, and then the mixture was homogenized through use of an ultrasonic homogenizer to obtain a brain homogenate.
Compound concentrations in the obtained plasma and in the brain homogenate were measured with the LC-MS/MS, and the compound concentration in the brain homogenate was multiplied by a factor of 4 to calculate a compound concentration in the brain. A Kp value was calculated from the ratio of the compound concentrations in the brain/plasma. Unbound compound concentrations in the plasma and in the brain were calculated from the plasma protein unbound ratio and brain protein unbound ratio of each compound determined in Test Example 1, and a Kp,uu value was calculated from the ratio of the unbound compound concentrations in the brain/plasma. A brain penetration property was evaluated on the basis of the calculated Kp value and Kp,uu value (Tables 1 to 4). Specifically, a compound showing a Kp value of 0.1 or more was judged to have a brain penetration property, and a compound showing a Kp,uu value of 0.3 or more was judged to have an excellent brain penetration property (Varadharajan, S., et al. (2015) J Pharm Sci 104, 1197-1206). In Table 4, “N/A” in the column “Kp,uu value” means that the value was unmeasured.

[2] = system: NIH/3T3_CCDC6-RET cells implanted in the brain; assay: Evaluation of drug efficacy in brain tumor implantation model; assay type: in vivo, nude mice (BALB/cAJcl-nu/nu); details: oral 50 mg/kg/day, twice a day for 16 consecutive days from Day 5; NIH/3T3_CCDC6-RET brain implant, nude mice
Experimental: Antitumor evaluation was performed in models with tumors implanted in the brain.
The growth inhibitory effect was confirmed by using NIH/3T3 cells (NIH/3T3_CCDC6-RET cells) in which luciferase and CCDC6-RET fusion protein were forced to be expressed for gene transfer. Six-week-old male nude mice (BALB/cAJcl-nu/nu, CLEA Japan, Inc.) were fixed on a brain stereotaxic instrument, and 2.5×10^4 cells per mice were implanted at a site 0.5 mm anteriorly from the bregma, 2 to 2.2 mm to the right and 3.5 mm deep. The day of implantation was defined as Day 0, luciferin (150 mg/kg) was administered intraperitoneally on Day 4, and intensity of luminescence (photons/sec) was measured using an IVIS Imaging System (Lumina II, PerkinElmer).
From the next day (Day 5), compounds were administered twice a day for 16 consecutive days. Each compound was suspended in 0.5% HPMC/0.1N hydrochloric acid and administered orally at 50 mg/kg/day. To confirm tumor growth, intensity of luminescence was measured at intervals of 3 or 4 days by the method described above.
However, since a humane endpoint due to tumor growth was applied to the drug non-administration group (control group), statistical evaluation was performed by Dunnett's test using the measurement value on Day 14.

Row | SMILES | Kp at 1 h [1] | Kp uu at 1 h [1] | inhibitory effect on growth of tumors implanted in the brain (intensity of luminescence) [2]
1 | COCc1ccc(NC(=O)c2c(C#Cc3cn(C)nc3C)n(C3(C)CC3)c3ncnc(N)c23)cc1 [Example 1, 4-amino-6-[2-(1,3-dimethyl-1H-pyrazol-4-yl)ethynyl]-N-[4-(methoxymethyl)phenyl]-7-(1-methylcyclopropyl)-7H-pyrrolo[2,3-d]pyrimidine-5-carboxamide] | 0.425 | 0.425 | –
2 | COCc1ccc(NC(=O)c2c(C#CCN3CCOCC3)n(C3(C)CC3)c3ncnc(N)c23)cc1 [Example 2, 4-amino-N-[4-(methoxymethyl)phenyl]-7-(1-methylcyclopropyl)-6-(3-morpholinoprop-1-yn-1-yl)-7H-pyrrolo[2,3-d]pyrimidine-5-carboxamide] | 1.71 | 1.8 | inhibitory effect on the growth of the implanted tumors
3 | COCc1ccc(NC(=O)c2c(C#CC3CCN(C)CC3)n(C3(C)CC3)c3ncnc(N)c23)cc1 [Example 3, 4-amino-N-[4-(methoxymethyl)phenyl]-7-(1-methylcyclopropyl)-6-[(1-methylpiperidin-4-yl)ethynyl]-7H-pyrrolo[2,3-d]pyrimidine-5-carboxamide] | 0.772 | 0.22 | –
4 | COCc1ccc(NC(=O)c2c(C#Cc3cnn(C)c3)n(C3(C)CC3)c3ncnc(N)c23)cc1 [Example 4, 4-amino-N-[4-(methoxymethyl)phenyl]-6-((1-methyl-1H-pyrazol-4-yl)ethynyl)-7-(1-methylcyclopropyl)-7H-pyrrolo[2,3-d]pyrimidine-5-carboxamide] | 1.44 | 1.2 | –
5 | CC#Cc1c(C(=O)Nc2ccc(COC)cc2)c2c(N)ncnc2n1C1(C)CC1 [Example 5, 4-amino-N-[4-(methoxymethyl)phenyl]-7-(1-methylcyclopropyl)-6-(prop-1-yn-1-yl)-7H-pyrrolo[2,3-d]pyrimidine-5-carboxamide] | 1.56 | 0.681 | –
6 | COCc1ccc(NC(=O)c2c(C#CCN(C)C)n(C3(C)CC3)c3ncnc(N)c23)cc1 [Example 6, 4-amino-6-[3-(dimethylamino)prop-1-yn-1-yl]-N-[4-(methoxymethyl)phenyl]-7-(1-methylcyclopropyl)-7H-pyrrolo[2,3-d]pyrimidine-5-carboxamide] | 0.969 | 0.922 | –
7 | COCc1ccc(NC(=O)c2c(OC[C@H]3CCCO3)n(C3(C)CC3)c3ncnc(N)c23)cc1 [Example 7, (R)-4-amino-N-[4-(methoxymethyl)phenyl]-7-(1-methylcyclopropyl)-6-((tetrahydrofuran-2-yl)methoxy)-7H-pyrrolo[2,3-d]pyrimidine-5-carboxamide] | 1.63 | 0.608 | –
8 | COCc1ccc(NC(=O)c2cn(C3(C)CC3)c3ncnc(N)c23)cc1 [Example 8, 4-amino-N-[4-(methoxymethyl)phenyl]-7-(1-methylcyclopropyl)-7H-pyrrolo[2,3-d]pyrimidine-5-carboxamide] | 0.175 | 0.1 | –
9 | CCOc1c(C(=O)Nc2ccc(COC)cc2)c2c(N)ncnc2n1C1(C)CC1 [Example 9, 4-amino-6-ethoxy-N-[4-(methoxymethyl)phenyl]-7-(1-methylcyclopropyl)-7H-pyrrolo[2,3-d]pyrimidine-5-carboxamide] | 2.12 | 0.914 | –
10 | COCc1ccc(NC(=O)c2c(C#Cc3cncn3C)n(C3(C)CC3)c3ncnc(N)c23)cc1 [Example 10, 4-amino-N-(4-(methoxymethyl)phenyl)-6-((1-methyl-1H-imidazol-5-yl)ethynyl)-7-(1-methylcyclopropyl)-7H-pyrrolo[2,3-d]pyrimidine-5-carboxamide] | 0.143 | 0.056 | –
11 | COCc1ccc(NC(=O)c2c(C#CCN3CCCCC3)n(C3(C)CC3)c3ncnc(N)c23)cc1 [Example 11, 4-amino-N-[4-(methoxymethyl)phenyl]-7-(1-methylcyclopropyl)-6-(3-(piperidin-1-yl)prop-1-yn-1-yl)-7H-pyrrolo[2,3-d]pyrimidine-5-carboxamide] | 1.36 | – | –
12 | COCc1ccc(NC(=O)c2c(C#CCN3CCCC3)n(C3(C)CC3)c3ncnc(N)c23)cc1 [Example 12, 4-amino-N-[4-(methoxymethyl)phenyl]-7-(1-methylcyclopropyl)-6-(3-(pyrrolidin-1-yl)prop-1-yn-1-yl)-7H-pyrrolo[2,3-d]pyrimidine-5-carboxamide] | 1.02 | 1.45 | –
13 | COCc1ccc(NC(=O)c2c(C#CC3CCOCC3)n(C3(C)CC3)c3ncnc(N)c23)cc1 [Example 13, 4-amino-N-[4-(methoxymethyl)phenyl]-7-(1-methylcyclopropyl)-6-((tetrahydro-2H-pyran-4-yl)ethynyl)-7H-pyrrolo[2,3-d]pyrimidine-5-carboxamide] | 2.08 | 0.891 | –
14 | COCc1ccc(NC(=O)c2c(C#CCC(C)(C)O)n(C3(C)CC3)c3ncnc(N)c23)cc1 [Example 14, 4-amino-6-(4-hydroxy-4-methylpent-1-yn-1-yl)-N-[4-(methoxymethyl)phenyl]-7-(1-methylcyclopropyl)-7H-pyrrolo[2,3-d]pyrimidine-5-carboxamide] | 0.352 | 0.242 | –
15 | COCc1ccc(NC(=O)c2c(C#CCC3CCOCC3)n(C3(C)CC3)c3ncnc(N)c23)cc1 [Example 15, 4-amino-N-[4-(methoxymethyl)phenyl]-7-(1-methylcyclopropyl)-6-[3-(tetrahydro-2H-pyran-4-yl)prop-1-yn-1-yl]-7H-pyrrolo[2,3-d]pyrimidine-5-carboxamide] | 0.74 | 0.37 | –
16 | COCc1ccc(NC(=O)c2c(C#Cc3cccnc3)n(C3(C)CC3)c3ncnc(N)c23)cc1 [Example 16, 4-amino-N-[4-(methoxymethyl)phenyl]-7-(1-methylcyclopropyl)-6-(pyridin-3-ylethynyl)-7H-pyrrolo[2,3-d]pyrimidine-5-carboxamide] | 1.09 | 0.653 | –
17 | COCc1ccc(NC(=O)c2c(C#Cc3ccc(N)nc3)n(C3(C)CC3)c3ncnc(N)c23)cc1 [Example 17, 4-amino-6-[(6-aminopyridin-3-yl)ethynyl]-N-[4-(methoxymethyl)phenyl]-7-(1-methylcyclopropyl)-7H-pyrrolo[2,3-d]pyrimidine-5-carboxamide] | 0.129 | 0.052 | –
18 | COCc1ccc(NC(=O)c2c(C#CCN3CCSCC3)n(C3(C)CC3)c3ncnc(N)c23)cc1 [Example 18, 4-amino-N-[4-(methoxymethyl)phenyl]-7-(1-methylcyclopropyl)-6-(3-thiomorpholinoprop-1-yn-1-yl)-7H-pyrrolo[2,3-d]pyrimidine-5-carboxamide] | 0.685 | 0.443 | –
19 | Cc1cc(NC(=O)c2cn(C(C)(C)C)c3ncnc(N)c23)n[nH]1 [compound 1, reference compound] | 0.056 | – | –
20 | Cc1cc(NC(=O)c2cn(C3(C)CC3)c3ncnc(N)c23)n[nH]1 [compound 2, reference compound] | 0.022 | 0.005 | –
21 | Cc1cc(NC(=O)c2c(C#Cc3cnn(C)c3)n(C3(C)CC3)c3ncnc(N)c23)[nH]n1 [compound 3, reference compound] | 0.076 | – | –
